Measurements: paper PMC4854934, “Rapid Screening of Antimicrobial Synthetic Peptides” (International Journal of Peptide Research and Therapeutics, 2015)
Converted amounts (≈) assume the structure as drawn. “Also recorded” adds a separate entry of the source. Where a name gives a salt, the structure may show the parent alone. Read-outs that look alike come from different tables or passages of the source. Where a SMILES comes first, the peptide text is derived from it. Bridges are numbered along the chain shown (N, C = ends). Roman numbers before positions name the chains, in order. Where no end group is shown, it is not given here. The star is where a group is joined. Palmitoyl = CCCCCCCCCCCCCCCC(=O)*; Myristoyl = CCCCCCCCCCCCCC(=O)*; Lauroyl = CCCCCCCCCCCC(=O)*

Legend:
Format in all cases: cell-based
[1] = system: Bacillus subtilis ATCC 6633
Experimental: (§1) Minimum inhibitory concentration (MIC) was determined by broth microdilution method on 96-well polypropylene plates, according to Clinical and Laboratory Standards Institute (CLSI) recommendations. All tests were conducted in triplicate and involved six reference strains of the following bacteria: Bacillus subtilis ATCC 6633, Escherichia coli ATCC 25922, Klebsiella pneumoniae ATCC 200603, Pseudomonas aeruginosa ATCC 9027, Staphylococcus aureus ATCC 25923, Staphylococcus epidermidis ATCC 14490 and two reference strains of fungi: Candida albicans ATCC 10231 and Candida tropicalis PCM 2681. Concentrations of applied peptides ranged from 512 to 1 µg/mL. Two microbiological media were used: Mueller–Hinton Broth for bacteria and Sabouraud Dextrose Broth for fungi. Incubation took 18 h at 37 °C and 48 h at 27 °C respectively. MIC was taken as the lowest concentration of a peptide where the visible growth of microbes was inhibited.

[2] = system: Candida albicans ATCC 10231
Experimental: as §1

[3] = system: Candida tropicalis PCM 2681
Experimental: as §1

[4] = system: Escherichia coli ATCC 25922
Experimental: as §1

[5] = system: Klebsiella pneumoniae ATCC 200603
Experimental: as §1

[6] = system: Pseudomonas aeruginosa ATCC 9027
Experimental: as §1

[7] = system: Staphylococcus aureus ATCC 25923
Experimental: as §1

[8] = system: Staphylococcus epidermidis ATCC 14490
Experimental: as §1

[9] = system: all microorganisms tested; assay: TLC direct bioautography (TLC-DB) with resazurin; settings: crude peptide, bacteria 37 °C 5 h, fungi 27 °C 7 h, resazurin 4 mg/mL (0.1 % Triton X-100); for TLC-DB with separation: zones after resazurin: 4 µL of 5 mg/mL, n-butanol/acetone/acetic acid/5 % ammonia/water 4.5:1.5:1:1:2; for TLC-DB without separation: appearance of spot after resazurin: 10 µL of 5 mg/mL applied directly on TLC plate, no development
Experimental: Direct bioautography assays to choose the most suitable and efficient stationary phase were performed on the following TLC plates: TLC Silica gel 60 RP-18 F254S (Merck), HPTLC-Platten Nano-SIL 20 UV254 (Macherey–Nagel), HPTLC Nano-ADAMANT UV254 (Macherey–Nagel) and TLC Aluminium oxide 60 F254 (Merck). The plates were sealed separately and autoclaved at 121 °C for 15 min. Peptide samples were dissolved in the solution of methanol and distilled water (75:25). 4 μL of each sample (5 mg/mL) was applied on the TLC plate. Separation was performed using a mobile phase consisting of n-butanol, acetone, acetic acid, 5 % ammonia and distilled water (4.5:1.5:1:1:2 v/v/v/v/v). Moreover, samples without separation were also investigated. In this case 10 µL of each sample was applied directly on the TLC plate and dried. All processes were performed under sterile conditions in the laminar flow cabinet. Microbiological assays were conducted using fivefold dilution of overnight culture of bacteria and a 48-h culture of fungi. After evaporation of eluents, TLC plates were sterilized under UV for 15 min and dipped into previously prepared inoculums of microorganisms for 20 s. Subsequently they were placed in a sterile Petri dish and incubated—bacteria at 37 °C for 5 h and fungi at 27 °C for 7 h. To visualize the growth inhibition zones, the plates were sprayed with 4 mg/mL (0.1 % Triton X-100) of a cell viability reagent, resazurin salt solution (Sigma-Aldrich).
To determine the usefulness of the TLC layer material, preliminary separation experiments were carried out. […] RP-18 layer’s stability was affected by TLC-bioautography procedures, resulting in material disruption. On the other hand, aluminum oxide layer was stable enough, however it gave low quality separation. Therefore, Nano-Sil and Nano-ADAMANT layers were chosen as the most suitable for TLC-DB of synthetic antimicrobial peptides. Mobile phase consisting of n-butanol, acetone, acetic acid, 5 % ammonia and distilled water (4.5:1.5:1:1:2 v/v/v/v/v) provided the best separation of tested compounds. Moreover, the influence of TFA content among crude peptides was also investigated. In this case all tested compounds were lyophilized from 0.1 mM HCl for three times before application on TLC plate in order to exchange the TFA to chloride counter ion. Nevertheless, the obtained results were the same. Assays with (Fig. 1) and without separation (Fig. 2) were performed simultaneously. Growing microorganisms that adhered to the surface of the TLC plate reduced the dye to pink resorufin. […] The Rf values of non-viable cell area were the same for purified compounds.

[10] = system: all the tested species of bacteria and fungi; assay: Broth microdilution, summary over all strains; settings: summary of Tables 1, 2
Experimental: as §1

[11] = broth microdilution, 96-well polypropylene plates, Mueller-Hinton Broth, 18 h at 37 °C, peptide 512 to 1 µg/mL, triplicate, visible growth
[12] = broth microdilution, 96-well polypropylene plates, Sabouraud Dextrose Broth, 48 h at 27 °C, peptide 512 to 1 µg/mL, triplicate, visible growth

| Compound | MIC against B. subtilis ATCC 6633 [1, 11] [µg/mL] | MIC against C. albicans ATCC 10231 [2, 12] [µg/mL] | MIC against C. tropicalis PCM 2681 [3, 12] [µg/mL] | MIC against E. coli ATCC 25922 [4, 11] [µg/mL] | MIC against K. pneumoniae ATCC 200603 [5, 11] [µg/mL] | MIC against P. aeruginosa ATCC 9027 [6, 11] [µg/mL] | MIC against S. aureus ATCC 25923 [7, 11] [µg/mL] | MIC against S. epidermidis ATCC 14490 [8, 11] [µg/mL] | TLC-DB with separation: zones after resazurin [9] | TLC-DB without separation: appearance of spot after resazurin [9] | antimicrobial activity among all the tested species of bacteria and fungi [10] | MIC against B. subtilis ATCC 6633 ([1]; ATCC 6633, 18 h) [µg/mL] | MIC against C. albicans ATCC 10231 ([2]; ATCC 10231, 48 h) [µg/mL] | MIC against C. tropicalis PCM 2681 ([3]; PCM 2681, 48 h) [µg/mL] | MIC against E. coli ATCC 25922 ([4]; ATCC 25922, 18 h) [µg/mL] | MIC against K. pneumoniae ATCC 200603 ([5]; ATCC 200603, 18 h) [µg/mL] | MIC against P. aeruginosa ATCC 9027 ([6]; ATCC 9027, 18 h) [µg/mL] | MIC against S. aureus ATCC 25923 ([7]; ATCC 25923, 18 h) [µg/mL] | MIC against S. epidermidis ATCC 14490 ([8]; ATCC 14490, 18 h) [µg/mL] |
| --- | --- | --- | --- | --- | --- | --- | --- | --- | --- | --- | --- | --- | --- | --- | --- | --- | --- | --- | --- |
| CC[C@H](C)[C@H](N)C(=O)N[C@@H](CS)C(=O)N[C@@H](Cc1c[nH]cn1)C(=O)N[C@@H](Cc1c[nH]cn1)C(=O)N[C@@H](CS)C(=O)N[C@H](C(=O)O)[C@@H](C)CC [ICHHCI-OH] (H-ICHHCI-OH; N-terminus assumed) | >512 | >512 | >512 | >512 | >512 | >512 | >512 | >512 | white reduction zone; also recorded: white inhibition zone | soft white inhibition zone | no antimicrobial activity | – | – | – | – | – | – | – | – |
| CCCCCCCCCCCC(=O)N[C@@H](CSSC[C@H](NC(=O)CCCCCCCCCCC)C(=O)N[C@@H](CCCCN)C(=O)N[C@@H](CCCCN)C(N)=O)C(=O)N[C@@H](CCCCN)C(=O)N[C@@H](CCCCN)C(N)=O [Laur-CKK-NH2 dimer] (I: Lauroyl-Cys-Lys-Lys-NH2 / II: Lauroyl-Cys-Lys-Lys-NH2; disulfide I:1-II:1) | – | – | – | – | – | – | – | – | two blue spots; also recorded: two inhibition zones | did not reduce resazurin | – | 2 (≈ 1.79 µM) | 512 (≈ 459 µM) | >512 | 8 (≈ 7.17 µM) | 8 (≈ 7.17 µM) | 512 (≈ 459 µM) | 8 (≈ 7.17 µM) | 2 (≈ 1.79 µM) |
| CCCCCCCCCCCCCC(=O)N[C@@H](CCCCN)C(=O)NCC(=O)N[C@@H](CCCCN)C(N)=O [Mir-KGK-NH2] (Myristoyl-Lys-Gly-Lys-NH2) | – | – | – | – | – | – | – | – | – | did not reduce resazurin | – | 2 (≈ 3.7 µM) | 128 (≈ 237 µM) | 256 (≈ 473 µM) | 64 (≈ 118 µM) | 128 (≈ 237 µM) | >512 | 16 (≈ 29.6 µM) | 4 (≈ 7.4 µM) |
| CCCCCCCCCCCCCCCC(=O)N[C@@H](CCCCNC(=O)C(F)(F)F)C(=O)N[C@@H](CCCCNC(=O)C(F)(F)F)C(N)=O [Pal-K(TFA)K(TFA)-NH2] | – | – | – | – | – | – | – | – | – | – | no antimicrobial activity | >512 | >512 | >512 | >512 | >512 | >512 | >512 | >512 |
| CCCCCCCCCCCCCCCC(=O)N[C@@H](CCCCN)C(=O)NCC(=O)N[C@@H](CCCCN)C(N)=O [Pal-KGK-NH2] (Palmitoyl-Lys-Gly-Lys-NH2) | – | – | – | – | – | – | – | – | – | did not reduce resazurin | – | 2 (≈ 3.52 µM) | 64 (≈ 113 µM) | >512 | 8 (≈ 14.1 µM) | 16 (≈ 28.1 µM) | 64 (≈ 113 µM) | 16 (≈ 28.1 µM) | 4 (≈ 7.03 µM) |
| CCCCCCCCCCCCCCCC(=O)N[C@@H](CCCCN)C(=O)N[C@@H](CCCCN)C(N)=O [Pal-KK-NH2] | – | – | – | – | – | – | – | – | – | did not reduce resazurin | – | 2 (≈ 3.91 µM) | 128 (≈ 250 µM) | 128 (≈ 250 µM) | 8 (≈ 15.6 µM) | 16 (≈ 31.3 µM) | 128 (≈ 250 µM) | 8 (≈ 15.6 µM) | 4 (≈ 7.82 µM) |
| GLFDVIKKVASVIGGL-NH2 [Citropin 1.1] | – | – | – | – | – | – | – | – | – | – | – | 4 | 128 | 128 | 32 | 128 | 256 | 16 | 8 |
| KWKLFKKIGAVLKVL-NH2 [CAMEL] | 2 | 128 | 256 | 2 | 2 | 256 | 4 | 1 | – | – | – | – | – | – | – | – | – | – | – |
| QQRFEWEFEQQ-NH2 [p11] | >512 | >512 | >512 | >512 | >512 | >512 | >512 | >512 | – | – | – | – | – | – | – | – | – | – | – |
